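Assay format: 96-well plates, 48-hour exposure. GI50 marks 50% less growth. The concentration for full growth arrest is given as TGI.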
Legend:
Test in all cases: NCI-60 cell line screen, 48 h
[1] = system: DU-145 prostate
[2] = system: OVCAR-4 ovarian
[3] = system: HS 578T breast
[4] = system: CAKI-1 renal
[5] = system: HCC-2998 colon
[6] = system: SK-MEL-28 melanoma
[7] = system: SN12C renal
[8] = system: COLO 205 colon
[9] = system: NCI-H522 lung
[10] = system: MOLT-4 leukemia
[11] = system: 786-0 renal
[12] = system: OVCAR-3 ovarian
[13] = system: HOP-92 NSCLC
[14] = system: MDA-MB-231 breast
[15] = system: OVCAR-5 ovarian
[16] = system: SF-268 CNS
[17] = system: LOX IMVI melanoma
[18] = system: ACHN renal
[19] = system: SNB-19 CNS
[20] = system: MALME-3M melanoma
[21] = system: IGROV1 ovarian
[22] = system: HT29 colon
[23] = system: OVCAR-8 ovarian
[24] = system: SW-620 colon
[25] = system: HL-60(TB) leukemia
[26] = system: NCI/ADR-RES ovarian
[27] = system: A549 NSCLC
[28] = system: KM12 colon
[29] = system: NCI-H23 lung
[30] = system: NCI-H226 lung
[31] = system: SR leukemia
[32] = system: MCF7 breast
[33] = system: UACC-62 melanoma
[34] = system: UO-31 renal
[35] = system: SK-MEL-2 melanoma
[36] = system: RPMI-8226 leukemia
[37] = system: PC-3 prostate
[38] = system: SK-MEL-5 melanoma
[39] = system: U251 CNS
[40] = system: HOP-62 NSCLC
[41] = system: SF-539 CNS
[42] = system: NCI-H460 lung
[43] = system: UACC-257 melanoma
[44] = system: MDA-MB-435
[45] = system: CCRF-CEM leukemia
[46] = system: HCT-116 colon
[47] = system: HCT-15 colon
[48] = system: TK-10 renal
[49] = system: SNB-75 CNS
[50] = system: T-47D breast
[51] = system: EKVX NSCLC
[52] = system: SF-295 CNS
[53] = system: BT-549 breast
[54] = system: M14 melanoma
[55] = system: SK-OV-3 ovarian
[56] = system: A498 renal
[57] = system: RXF 393 renal
[58] = system: K-562 leukemia

## N#CSc1c[nH]c2ccc(/C=C/C(=O)/C=C(O)/C=C/c3ccc4[nH]cc(SC#N)c4c3)cc12
[1]
  GI50: 1.92 µM
  TGI: 4.56 µM
[2]
  GI50: 1.42 µM
  TGI: 18.6 µM
[3]
  GI50: 2.98 µM
  TGI: 35.2 µM
[4]
  GI50: 1.58 µM
  TGI: 4.1 µM
[5]
  GI50: 3.82 µM
  TGI: 16.6 µM
[6]
  GI50: 2 µM
  TGI: 5.76 µM
[7]
  GI50: 1.92 µM
  TGI: 10.9 µM
[8]
  GI50: 1.55 µM
  TGI: 3.7 µM
[9]
  GI50: 0.886 µM
  TGI: 2.79 µM
[10]
  GI50: 1.61 µM
  TGI: 5.44 µM
[11]
  GI50: 0.956 µM
  TGI: 9.53 µM
[12]
  GI50: 0.515 µM
  TGI: 4.06 µM
[13]
  GI50: 1.63 µM
  TGI: 4.46 µM
[14]
  GI50: 1.72 µM
  TGI: 3.61 µM
[15]
  GI50: 3.6 µM
  TGI: 14.8 µM
[16]
  GI50: 2.65 µM
  TGI: 13.1 µM
[17]
  GI50: 0.483 µM
  TGI: 1.83 µM
[18]
  GI50: 0.568 µM
  TGI: 3.3 µM
[19]
  GI50: 3.25 µM
  TGI: 15.5 µM
[20]
  GI50: 2.22 µM
  TGI: 5.91 µM
[21]
  GI50: 1.19 µM
  TGI: 8.41 µM
[22]
  GI50: 1.42 µM
  TGI: 3.84 µM
[23]
  GI50: 2.46 µM
  TGI: > 100 µM
[24]
  GI50: 0.668 µM
  TGI: 2.35 µM
[25]
  GI50: 0.902 µM
  TGI: 4.34 µM
[26]
  GI50: 3.22 µM
  TGI: 52.7 µM
[27]
  GI50: 3.25 µM
  TGI: 14.7 µM
[28]
  GI50: 1.66 µM
  TGI: 5.47 µM
[29]
  GI50: 2.95 µM
  TGI: 13.6 µM
[30]
  GI50: 1.95 µM
  TGI: 5.86 µM
[31]
  GI50: 0.505 µM
  TGI: 6.14 µM
[32]
  GI50: 0.871 µM
  TGI: 4.15 µM
[33]
  GI50: 2.11 µM
  TGI: 7.11 µM
[34]
  GI50: 0.344 µM
  TGI: 1.66 µM
[35]
  GI50: 3.23 µM
  TGI: 12.3 µM
[36]
  GI50: 1.56 µM
  TGI: 5.98 µM
[37]
  GI50: 0.343 µM
  TGI: 2.03 µM
[38]
  GI50: 1.52 µM
  TGI: 3.48 µM
[39]
  GI50: 1.17 µM
  TGI: 9.09 µM
[40]
  GI50: 3.82 µM
  TGI: 19.8 µM
[41]
  GI50: 2.87 µM
  TGI: 10.6 µM
[42]
  GI50: 3.01 µM
  TGI: 11.2 µM
[43]
  GI50: 2.79 µM
  TGI: 12.5 µM
[44]
  GI50: 2.06 µM
  TGI: 7.03 µM
[45]
  GI50: 0.612 µM
  TGI: 8.08 µM
[46]
  GI50: 0.296 µM
  TGI: 1.19 µM
[47]
  GI50: 0.416 µM
  TGI: 2.11 µM
[48]
  GI50: 3.35 µM
  TGI: 23.8 µM
[49]
  GI50: 3.1 µM
  TGI: 21.4 µM
[50]
  GI50: 1.97 µM
  TGI: 8.82 µM
[51]
  GI50: 1.97 µM
  TGI: 10.7 µM
[52]
  GI50: 3.03 µM
  TGI: 13.3 µM
[53]
  GI50: 1.52 µM
  TGI: 8.04 µM
[54]
  GI50: 0.864 µM
  TGI: 3.58 µM
[55]
  GI50: 20.3 µM
  TGI: 80.2 µM
[56]
  GI50: 7.61 µM
  TGI: 55.4 µM
[57]
  GI50: 0.538 µM
  TGI: 2.93 µM

## COCCn1c(Nc2ccc(C(=O)NO)cc2)nc2ccccc21
[1]
  GI50: 2.91 µM
  TGI: 14.7 µM
[2]
  GI50: 16.1 µM
  TGI: > 100 µM
[3]
  GI50: 3.43 µM
  TGI: 34.3 µM
[4]
  GI50: 1.37 µM
  TGI: 6.24 µM
[58]
  GI50: 3.03 µM
  TGI: > 100 µM
[5]
  GI50: 3.32 µM
  TGI: 12.6 µM
[6]
  GI50: 4.94 µM
  TGI: 21 µM
[7]
  GI50: 7.28 µM
  TGI: 47.4 µM
[8]
  GI50: 2.75 µM
  TGI: 7.88 µM
[9]
  GI50: 2.28 µM
  TGI: 13.6 µM
[10]
  GI50: 3.86 µM
  TGI: > 100 µM
[11]
  GI50: 10.5 µM
  TGI: 23.5 µM
[12]
  GI50: 3.24 µM
  TGI: 14.1 µM
[14]
  GI50: 4.65 µM
  TGI: 44.7 µM
[15]
  GI50: 1.69 µM
  TGI: 8.23 µM
[16]
  GI50: 4.9 µM
  TGI: 17.5 µM
[17]
  GI50: 5.9 µM
  TGI: 19 µM
[18]
  GI50: 2.85 µM
  TGI: 12.9 µM
[19]
  GI50: 10.7 µM
  TGI: 30 µM
[20]
  GI50: 2.07 µM
  TGI: 9.02 µM
[21]
  GI50: 2.39 µM
  TGI: 15.2 µM
[22]
  GI50: 2.97 µM
  TGI: > 100 µM
[23]
  GI50: 2.69 µM
  TGI: 16 µM
[24]
  GI50: 2.34 µM
  TGI: 7.14 µM
[25]
  GI50: 3.63 µM
  TGI: > 100 µM
[26]
  GI50: 1.3 µM
  TGI: 4.84 µM
[27]
  GI50: 4.9 µM
  TGI: 23 µM
[28]
  GI50: 3.65 µM
  TGI: 15.1 µM
[29]
  GI50: 4.43 µM
  TGI: 16.3 µM
[30]
  GI50: 13.7 µM
  TGI: 36.9 µM
[31]
  GI50: 1.69 µM
  TGI: > 100 µM
[32]
  GI50: 5.45 µM
  TGI: > 100 µM
[33]
  GI50: 2.06 µM
  TGI: 10.5 µM
[34]
  GI50: 2.25 µM
  TGI: 17.1 µM
[35]
  GI50: 5.33 µM
  TGI: 50.3 µM
[36]
  GI50: 3.7 µM
  TGI: > 100 µM
[37]
  GI50: 8.78 µM
  TGI: > 100 µM
[38]
  GI50: 3.55 µM
  TGI: 12.9 µM
[39]
  GI50: 3.99 µM
  TGI: 18.6 µM
[40]
  GI50: 4.58 µM
  TGI: 55.1 µM
[41]
  GI50: 4.56 µM
  TGI: 25.1 µM
[42]
  GI50: 4.06 µM
  TGI: 30.4 µM
[43]
  GI50: 1.77 µM
  TGI: 14.1 µM
[44]
  GI50: 2.89 µM
  TGI: 11.4 µM
[45]
  GI50: 3.52 µM
  TGI: > 100 µM
[46]
  GI50: 2.11 µM
  TGI: 6.54 µM
[47]
  GI50: 9.14 µM
  TGI: 31.5 µM
[48]
  GI50: 3.19 µM
  TGI: 44.6 µM
[49]
  GI50: 2.62 µM
  TGI: 19.1 µM
[50]
  GI50: 3.03 µM
  TGI: > 100 µM
[51]
  GI50: 1.89 µM
  TGI: 21.4 µM
[52]
  GI50: 2.93 µM
  TGI: 16.3 µM
[53]
  GI50: 15.2 µM
  TGI: 67.9 µM
[54]
  GI50: 3.49 µM
  TGI: 14.9 µM
[55]
  GI50: 3.45 µM
  TGI: 20.2 µM
[56]
  GI50: 2.64 µM
  TGI: 9.17 µM
[57]
  GI50: 0.846 µM
  TGI: 3.91 µM
